Patent publication US11680050B2, “Crystalline forms of ozanimod and ozanimod hydrochloride, and processes for preparation thereof” (RECEPTOS LLC, priority 2016, dated 2023)
Values after ≈ are worked out from the molar mass of the structure shown.

Experiments:
Format in all cases: physicochemical
[1] = Solubility assessment of saturated solutions in SGF, FeSSIF and water, measured by HPLC
Method: Form CS1 and Form CS1 of ozanimod hydrochloride were suspended into SGF (Simulated gastric fluids) and FeSSIF (Fed state simulated intestinal fluids, pH=5.0) to obtain saturated solutions. After being equilibrated for 1 h, 4 h and 24 h, concentrations of the saturated solutions were measured by HPLC.
Form CS3 and Form CS5 were suspended into SGF (Simulated gastric fluids) and water, and Form CS2 was suspended into FeSSIF (Fed state simulated intestinal fluids) to obtain saturated solutions. After being equilibrated for 1 h, 4 h and 24 h, concentrations of the saturated solutions were measured by HPLC.

[2] = Particle size distribution test (laser particle size analyzer, wet process); settings: for MV, average particle size calculated by volume: dispersion medium Isopar G; for D10 / D50 (median diameter) / D90: volume distribution, Isopar G
Method: The particle size distribution test in the present disclosure is acquired by the S3500 laser particle size analyzer of Microtrac. Microtrac S3500 is equipped with the SDC (Sample Delivery Controller). The test is carried out by wet process, and the dispersion medium is Isopar G The parameters are as follow:
Certain amount of samples of Form CS1, Form CS2, Form CS3, Form CS5, Form CS6 of ozanimod and Form CS1 of ozanimod hydrochloride were taken for particle size distribution test.

[3] = Hygroscopicity assessment by dynamic vapor sorption (DVS); settings: for Hygroscopicity class according to the definition of hygroscopicity: Chinese Pharmacopoeia 2015, 25° C., 80% RH; for Weight gain under 80% RH: DVS, 25° C.
Method: Dynamic Vapor Sorption (DVS) is measured via an SMS (Surface Measurement Systems Ltd.) intrinsic DVS. Typical Parameters for DVS test are as follows:
Gas and flow rate: N2, 200 mL/min
RH range: 0% RH to 95% RH […]
Dynamic vapor sorption (DVS) was applied to test hygroscopicity of Form CS1 of ozanimod hydrochloride with about 10 mg of samples.
Description and definition of hygroscopicity (Chinese Pharmacopoeia 2015 edition appendix Drug hygroscopic test guidelines, test at 25° C.+/−1° C., 80% RH). • deliquescent: Sufficient water is absorbed to form a liquid; • very hygroscopic: Increase in mass is equal to or greater than 15 percent; • hygroscopic: Increase in mass is less than 15 percent and equal to or greater than 2 percent; • slightly hygroscopic: Increase in mass is less than 2 percent and equal to or greater than 0.2 percent. • non hygroscopic or almost non hygroscopic: Increase in mass is less than 0.2 percent.

[4] = Stability assessment in constant temperature and humidity chambers (HPLC purity, XRPD crystalline form); settings: for 1 week purity % / 2 week purity % / 4 week purity %: HPLC; for 2 week purity %: 2 weeks; for Change of the crystalline form: XRPD; for Stability, overall conclusion of the storage test: after storage under all conditions tested for the form
Method: (§1) Three solid samples of Form CS1 were placed in constant temperature and humidity chambers at 25° C./60% RH, 40° C./75% RH and 60° C./75% RH for 4 weeks. XRPD was used to test the crystalline form at the end of week 4. HPLC was used to measure the chemical purity at the end of week 1, 2, and 4. The XRPD comparison result is shown in FIG. 31 (from top to bottom: XRPD pattern of Form CS1 before and after being stored under 25° C./60% RH, 40° C./75% RH and 60° C./75% RH for 4 weeks), and the results are shown in Table 20.
as §1, with “Four” for “Three”, “CS2” for “CS1”, “weeks and 80° C. for 1 week.” for “weeks.”, “32” for “31”, “weeks and 80° C. for 1 week),” for “weeks),”, “21.” for “20.”
as §1, with “Form CS3” for “Form CS1”, “comparison pattern” for “comparison result”, “FIG. 33” for “FIG. 31”, “Table 22.” for “Table 20.”
as §1, with “Form CS5” for “Form CS1”, “for 2” for “for 4”, “[…].” for “4. HPLC was used to measure the chemical purity at the end of week 1, 2, and 4.”, “comparison pattern” for “comparison result”, “FIG. 34” for “FIG. 31”, “Table 23.” for “Table 20.”
Two samples of Form CS6 were placed in constant temperature and humidity chambers at 25° C./60% RH and 40° C./75% RH for 4 weeks. XRPD was used to test the crystalline form at the end of week 4. HPLC was used to measure the chemical purity at the end of week 1, 2, and 4.The XRPD comparison result is shown in FIG. 35 (from top to bottom: XRPD pattern of Form CS6 before and after being stored under 25° C./60% RH and 40° C./75% RH for 4 weeks), and the results are shown in Table 24.
Four samples of Form CS1 of ozanimod hydrochloride were placed in constant temperature and humidity chambers at 25° C./60% RH, 40° C./75% RH and 60° C./75% RH for 4 weeks and 80° C. for 1 week. XRPD was used to test the crystalline form at the end of week 4. HPLC was used to measure the chemical purity at the end of week 1, 2, and 4. The XRPD comparison pattern is shown in FIG. 36 (from top to bottom: XRPD pattern of ozanimod hydrochloride Form CS1 before and after being stored under 25° C./60% RH, 40° C./75% RH and 60° C./75% RH for 4 weeks and 80° C. for 1 week), and the results are shown in Table 25.

[5] = Mechanical stability, manual grinding for 5 minutes in mortar, XRPD; settings: ground manually for 5 minutes, XRPD before and after
Method: Solid samples of Form CS3, Form CS5, Form CS6 of ozanimod and Form CS1 of ozanimod hydrochloride were ground manually for 5 minutes in mortar.

Solubility ([1]; FeSSIF (pH=5.0), 1 h) [µg/mL] | MV, average particle size calculated by volume [2] [μm] | D10 [2] [μm] | D50 (median diameter) [2] [μm] | D90 [2] [μm] | Weight gain under 80% RH [3] [%] | 1 week purity % ([4]; 25° C./60% RH, 1 week) [%] | 2 week purity % ([4]; 25° C./60% RH) [%] | 4 week purity % ([4]; 25° C./60% RH, 4 weeks) [%] | Change of the crystalline form ([4]; 25° C./60% RH, 4 weeks) | 1 week purity % ([4]; 40° C./75% RH, 1 week) [%] | 2 week purity % ([4]; 40° C./75% RH) [%] | 4 week purity % ([4]; 40° C./75% RH, 4 weeks) [%] | Change of the crystalline form ([4]; 40° C./75% RH, 4 weeks) | 1 week purity % ([4]; 60° C./75% RH, 1 week) [%] | 2 week purity % ([4]; 60° C./75% RH) [%] | 4 week purity % ([4]; 60° C./75% RH, 4 weeks) [%] | Change of the crystalline form ([4]; 60° C./75% RH, 4 weeks) | Stability, overall conclusion of the storage test [4] | SMILES | Hygroscopicity class according to the definition of hygroscopicity [3] | also measured
4200 (≈ 10.4 mM) | 22.40 | 3.15 | 11.20 | 48.90 | 0.36 | 99.12 | 99.18 | 98.97 | No change | 99.16 | 99.17 | 98.92 | No change | 99.26 | 99.13 | 98.71 | No change | good stability | CC(C)Oc1ccc(-c2nc(-c3cccc4c3CC[C@@H]4NCCO)no2)cc1C#N [Form CS1, ozanimod] | slightly hygroscopic (Increase in mass is less than 2 percent and equal to or greater than 0.2 percent) | Solubility ([1]; FeSSIF (pH=5.0), 4 h): 7300 µg/mL (≈ 18 mM); Solubility ([1]; SGF, 1 h): 6400 µg/mL (≈ 15.8 mM); Solubility ([1]; SGF, 4 h): 6300 µg/mL (≈ 15.6 mM); Solubility ([1]; SGF, 24 h): 5900 µg/mL (≈ 14.6 mM); solubility at 24 h ([1]; fed state simulated intestinal fluid (FeSSIF), pH 5, fessif, thermodynamic from solid, FeSSIF (pH=5.0), 24 h): 7700 µg/mL (≈ 19 mM)
2000 (≈ 4.94 mM) | 23.24 | 5.78 | 14.20 | 42.35 | 0.25 | 99.85 | 99.63 | 99.62 | No change | 99.84 | 99.78 | 99.55 | No change | 99.91 | 99.60 | 99.63 | No change | good stability | CC(C)Oc1ccc(-c2nc(-c3cccc4c3CC[C@@H]4NCCO)no2)cc1C#N [Form CS2, ozanimod] | slightly hygroscopic (Increase in mass is less than 2 percent and equal to or greater than 0.2 percent) | 1 week purity % ([4]; 80° C., 1 week): 99.71%; Change of the crystalline form ([4]; 80° C., 1 week): No change
 | 68.91 | 12.87 | 46.47 | 161.7 | 1.68 | 98.44 | 98.21 | 98.27 | No change | 98.47 | 98.33 | 97.97 | No change |  |  |  |  | good stability | CC(C)Oc1ccc(-c2nc(-c3cccc4c3CC[C@@H]4NCCO)no2)cc1C#N [Form CS6, ozanimod] |  | Form change under mechanical stress [5]: No form change
